According to the supplement of paper PMC6045584:
± gives the standard deviation of the averaged measurements.

compound: Oc1ccc(/C=C/c2cc(O)cc(O)c2)cc1 [RESVERATROL]; assay: surviving fraction relative to DMSO-only wells; higher = less growth inhibition; conditions: 50 nM; exposure time: 5 days
In short: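 At 250–500 cells per well in 384-well plates, log-phase tumour cell lines were seeded and, 24 hours on, exposed continuously for five days to inhibitors at 0.5, 1, 5, 10, 50, 100, 500 and 1000 nM. Viability readout was CellTiter-Glo luminescence, reported as surviving fraction normalised to the median of DMSO-only wells.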

Row | Test System | surviving fraction
1 | SCC36 HEADNECK | 1.25 ± 0.07
2 | OS25HAL BONE | 1.001 ± 0.0068
3 | HCC1806 BREAST | 1.24 ± 0.049
4 | HU09 BONE | 1.11 ± 0.15
5 | SG43 HEADNECK | 0.822 ± 0.13
6 | U2OS BONE | 1.06 ± 0.031
7 | HOSMNG BONE | 0.827 ± 0.11
8 | CASKI CERVIX | 1.03 ± 0.036
9 | SUM44 BREAST | 1.1 ± 0.17
10 | MDAMB231 BREAST | 0.9694 ± 0.0024
11 | CAL51 BREAST | 1.04 ± 0.056
12 | MDAMB436 BREAST | 1.08 ± 0.21
13 | HSSYII SYNOVIAL | 0.967 ± 0.04
14 | RDES SOFT TISSUE | 1.37 ± 0.13
15 | MDAMB157 BREAST | 0.992 ± 0.025
16 | CHLA90 AUTONOMIC GANGLIA | 0.962 ± 0.056
17 | CADOES1 SOFT TISSUE | 0.993 ± 0.023
18 | SG31 HEADNECK | 1.05 ± 0.15
19 | SCC47 HEADNECK | 1.21 ± 0.072
20 | S68 BREAST | 1.14 ± 0.17

Row | Test System | surviving fraction
21 | SNU475 LIVER | 0.9453 ± 0.006
22 | 22RV1 PROSTATE | 0.981 ± 0.015
23 | SG32 HEADNECK | 0.999 ± 0.018
24 | SCC003 HEADNECK | 1.06 ± 0.084
25 | JURKAT HAEMATOPOIETIC AND LYMPHOID TISSUE | 0.985 ± 0.018
26 | HT1080 SOFT TISSUE | 0.984 ± 0.017
27 | CAL120 BREAST | 1.02 ± 0.07
28 | MCF7 BREAST | 0.951 ± 0.063
29 | MFM223 BREAST | 1.08 ± 0.086
30 | LNCAP PROSTATE | 1.04 ± 0.16
31 | PCI30 HEADNECK | 1.05 ± 0.031
32 | OSHN BONE | 1.06 ± 0.026
33 | SG28 HEADNECK | 1.01 ± 0.005
34 | HOS BONE | 1.03 ± 0.012
35 | HUO3N1 BONE | 1.09 ± 0.035
36 | BT20 BREAST | 1.06 ± 0.037
37 | SJSA1 BONE | 1.67 ± 0.13
38 | JIMT1 BREAST | 1.01 ± 0.016
39 | HCC78 LUNG | 1.12 ± 0.2
40 | NY BONE | 1.01 ± 0.035

same assay, conditions: 100 nM; exposure time: 5 days

Row | Test System | surviving fraction
41 | SCC36 HEADNECK | 1.25 ± 0.03
42 | OS25HAL BONE | 1.08 ± 0.04
43 | HCC1806 BREAST | 1.23 ± 0.044
44 | HU09 BONE | 1.1 ± 0.079
45 | SG43 HEADNECK | 0.794 ± 0.19
46 | U2OS BONE | 1.08 ± 0.028
47 | HOSMNG BONE | 0.877 ± 0.11
48 | CASKI CERVIX | 1.05 ± 0.099
49 | SUM44 BREAST | 1.21 ± 0.26
50 | MDAMB231 BREAST | 0.998 ± 0.012
51 | CAL51 BREAST | 1.03 ± 0.028
52 | MDAMB436 BREAST | 0.993 ± 0.11
53 | HSSYII SYNOVIAL | 0.971 ± 0.079
54 | RDES SOFT TISSUE | 1.35 ± 0.24
55 | MDAMB157 BREAST | 1.07 ± 0.03
56 | CHLA90 AUTONOMIC GANGLIA | 1.07 ± 0.043
57 | CADOES1 SOFT TISSUE | 1.02 ± 0.061
58 | SG31 HEADNECK | 0.975 ± 0.19
59 | SCC47 HEADNECK | 1.17 ± 0.051
60 | S68 BREAST | 1 ± 0.059

Row | Test System | surviving fraction
61 | SNU475 LIVER | 1.01 ± 0.014
62 | 22RV1 PROSTATE | 1.09 ± 0.032
63 | SG32 HEADNECK | 1.05 ± 0.092
64 | SCC003 HEADNECK | 1.1 ± 0.064
65 | JURKAT HAEMATOPOIETIC AND LYMPHOID TISSUE | 0.953 ± 0.011
66 | HT1080 SOFT TISSUE | 1.03 ± 0.03
67 | CAL120 BREAST | 0.998 ± 0.043
68 | MCF7 BREAST | 0.99 ± 0.016
69 | MFM223 BREAST | 1.08 ± 0.18
70 | LNCAP PROSTATE | 0.919 ± 0.11
71 | PCI30 HEADNECK | 1.13 ± 0.045
72 | OSHN BONE | 1.13 ± 0.03
73 | SG28 HEADNECK | 1 ± 0.051
74 | HOS BONE | 1.06 ± 0.036
75 | HUO3N1 BONE | 1.1 ± 0.037
76 | BT20 BREAST | 1.12 ± 0.078
77 | SJSA1 BONE | 1.74 ± 0.092
78 | JIMT1 BREAST | 1.05 ± 0.027
79 | HCC78 LUNG | 1.03 ± 0.1
80 | NY BONE | 1.05 ± 0.047

same assay, conditions: 500 nM; exposure time: 5 days

Row | Test System | surviving fraction
81 | SCC36 HEADNECK | 1.05 ± 0.099
82 | OS25HAL BONE | 1.03 ± 0.018
83 | HCC1806 BREAST | 0.963 ± 0.029
84 | HU09 BONE | 1.05 ± 0.12
85 | SG43 HEADNECK | 0.848 ± 0.14
86 | U2OS BONE | 1.05 ± 0.033
87 | HOSMNG BONE | 0.878 ± 0.072
88 | CASKI CERVIX | 0.993 ± 0.023
89 | SUM44 BREAST | 1.2 ± 0.3
90 | MDAMB231 BREAST | 0.993 ± 0.012
91 | CAL51 BREAST | 1.02 ± 0.047
92 | MDAMB436 BREAST | 1.06 ± 0.15
93 | HSSYII SYNOVIAL | 0.9 ± 0.03
94 | RDES SOFT TISSUE | 1.68 ± 0.053
95 | MDAMB157 BREAST | 0.972 ± 0.095
96 | CHLA90 AUTONOMIC GANGLIA | 1.07 ± 0.064
97 | CADOES1 SOFT TISSUE | 0.991 ± 0.017
98 | SG31 HEADNECK | 1.13 ± 0.18
99 | SCC47 HEADNECK | 1.09 ± 0.023
100 | S68 BREAST | 1.1 ± 0.12

Row | Test System | surviving fraction
101 | SNU475 LIVER | 0.99 ± 0.035
102 | 22RV1 PROSTATE | 0.961 ± 0.12
103 | SG32 HEADNECK | 0.989 ± 0.2
104 | SCC003 HEADNECK | 1.09 ± 0.017
105 | JURKAT HAEMATOPOIETIC AND LYMPHOID TISSUE | 1.02 ± 0.029
106 | HT1080 SOFT TISSUE | 1.05 ± 0.013
107 | CAL120 BREAST | 1.04 ± 0.017
108 | MCF7 BREAST | 1 ± 0.077
109 | MFM223 BREAST | 1.19 ± 0.046
110 | LNCAP PROSTATE | 0.914 ± 0.08
111 | PCI30 HEADNECK | 1.07 ± 0.082
112 | OSHN BONE | 1.09 ± 0.02
113 | SG28 HEADNECK | 1.06 ± 0.053
114 | HOS BONE | 1.05 ± 0.024
115 | HUO3N1 BONE | 1.07 ± 0.029
116 | BT20 BREAST | 1.12 ± 0.19
117 | SJSA1 BONE | 1.61 ± 0.13
118 | JIMT1 BREAST | 1 ± 0.035
119 | HCC78 LUNG | 0.901 ± 0.26
120 | NY BONE | 0.951 ± 0.0076

same assay, conditions: 1000 nM; exposure time: 5 days

Row | Test System | surviving fraction
121 | SCC36 HEADNECK | 1.16 ± 0.16
122 | OS25HAL BONE | 1.16 ± 0.027
123 | HCC1806 BREAST | 0.963 ± 0.19
124 | HU09 BONE | 1.06 ± 0.038
125 | SG43 HEADNECK | 0.898 ± 0.22
126 | U2OS BONE | 1.05 ± 0.027
127 | HOSMNG BONE | 0.924 ± 0.1
128 | CASKI CERVIX | 1.06 ± 0.041
129 | SUM44 BREAST | 1.31 ± 0.41
130 | MDAMB231 BREAST | 1.03 ± 0.053
131 | CAL51 BREAST | 1.1 ± 0.043
132 | MDAMB436 BREAST | 1.07 ± 0.056
133 | HSSYII SYNOVIAL | 0.917 ± 0.043
134 | RDES SOFT TISSUE | 1.67 ± 0.12
135 | MDAMB157 BREAST | 1 ± 0.1
136 | CHLA90 AUTONOMIC GANGLIA | 1.08 ± 0.053
137 | CADOES1 SOFT TISSUE | 1.02 ± 0.068
138 | SG31 HEADNECK | 1.42 ± 0.32
139 | SCC47 HEADNECK | 1.2 ± 0.057
140 | S68 BREAST | 0.878 ± 0.066

Row | Test System | surviving fraction
141 | SNU475 LIVER | 1.04 ± 0.017
142 | 22RV1 PROSTATE | 1.05 ± 0.079
143 | SG32 HEADNECK | 1.01 ± 0.11
144 | SCC003 HEADNECK | 1.15 ± 0.075
145 | JURKAT HAEMATOPOIETIC AND LYMPHOID TISSUE | 1.04 ± 0.039
146 | HT1080 SOFT TISSUE | 1.1 ± 0.015
147 | CAL120 BREAST | 1.04 ± 0.056
148 | MCF7 BREAST | 1.04 ± 0.031
149 | MFM223 BREAST | 1.08 ± 0.11
150 | LNCAP PROSTATE | 0.956 ± 0.18
151 | PCI30 HEADNECK | 1.16 ± 0.015
152 | OSHN BONE | 1.11 ± 0.024
153 | SG28 HEADNECK | 1.03 ± 0.2
154 | HOS BONE | 1.07 ± 0.025
155 | HUO3N1 BONE | 1.01 ± 0.067
156 | BT20 BREAST | 1.25 ± 0.12
157 | SJSA1 BONE | 1.78 ± 0.078
158 | JIMT1 BREAST | 1.05 ± 0.021
159 | HCC78 LUNG | 0.904 ± 0.1
160 | NY BONE | 1.01 ± 0.054
